Results reported in patent US8268786B2, “Anti-cancer tocotrienol analogues and associated methods” (First Tech International Limited, priority 2009, dated 2012).
Where two headings read alike, the source gives them in different places.

Tests used:
[1] = tested on: highly malignant+SA mouse mammary epithelial cell line; test: MTT antiproliferative assay, +SA mouse mammary epithelial cells; type: cell-based
Protocol: The antiproliferative effects of Compounds 1-21 were tested using 3-(4,5-dimethylthiazol-2-yl)-2,5-diphenyl tetrasolium bromide (MTT) colorimetric assay utilizing cultures of the highly malignant+SA mouse mammary epithelial cell line maintained on serum-free media and containing 10 ng/mL epidermal growth factor (EGF) and 10 μg/mL insulin as mitogens using 24-well culture plates (6 wells/group) by MTT assay.
Cells were then divided into different treatment groups and given fresh control or treatment media every day. In growth inhibition studies, (IC50), +SA cells were treated with various doses of individual tocotrienol or tocotrienol derivatives for 4 days and then the viable cell number was determined using the MTT assay. Optical density of each sample was read at 570 nm on a microplate reader (SpectraCount, Packard BioScience Company, Meriden, Conn.) against a blank prepared from cell-free cultures. The number of cells/well was calculated against a standard curve prepared by plating various concentrations of cells, as determined by hemocytometer, at the start of each experiment. See McIntyre referenced above.
(§1) For each of the assays performed the compounds were dissolved in aqueous culture media by binding the compounds with bovine serum albumin (BSA).
(§2) An amount of each compound appropriate for the desired final compound concentration was placed in a 1.5 mL screw top glass vial and dissolved in 100 μL of 100% ethanol. Once dissolved, this ethanol/compound solution was added to a small volume of sterile 10% BSA in water and incubated overnight at 37° C. […] Ethanol was added to all treatment media such that the final ethanol concentration was the same in all treatment groups within a given experiment and was always less than 0.1%. Although the examples provided have been described in conjunction with specified amounts of ethanol and other compounds it should be understood that the invention is applicable to embodiments not having those limited concentration.

[2] = tested on: ER-positive human breast cancer cells MCF7; test: MTT antiproliferative assay, MCF7 cells; type: cell-based; conditions: for IC50: Homo sapiens
Protocol: as §1, §2
(§3) The cell growth of MCF7 (Example 24) and MDA-MB-231 (Example 25) cell lines was measured using the MTT assay procedures described above and an MTT assay kit (TACS™, Trevogen®, Inc., Gaithersburg, Md.). After passing the cells for 3-4 times, growing cells were incubated in a 96-well plate at a density of 8×10^3 cells per well, and allowed to attach for 24 hours. Complete growth medium was then replaced with 100 μL of RPMI serum free medium (GIBCO-Invitrogen, NY) containing various doses (20, 10, 5, 2 μM) of the tested compound and the culture continued at 37° C. under 5% CO2. After 96 hours, the incubated cells were treated with MTT solution (10 μL/well) at 37° C. for 4 hours. The color reaction was stopped by the addition of solubilization/stop solution (100 μL/well). The cells continued to be incubated at 37° C. to completely dissolve the formazan product. Absorbance of the samples was determined at 570 nm with an ELISA plate reader (BioTek, VT). Absorbance readings were converted to estimated cell numbers based on a standard curve prepared by plating various concentration of cells, as determined by hemocytometer, and measuring the absorbance of those cells at the start of each experiment. The IC50 value of each compound was calculated using nonlinear regression (curve fit) of log concentration versus the number of cells/well implemented using GraphPad Prism 5.0 program. The procedure was identical for both human breast cancer cell lines MCF7 and MDA-MB-231.

[3] = tested on: ER-negative human breast cancer cells MDA-MB-231; test: MTT antiproliferative assay, MDA-MB-231 cells; type: cell-based; conditions: for IC50: Homo sapiens
Protocol: as §1, §2, §3

[4] = tested on: highly metastatic breast cancer cell line MDA-MB-231; test: BME Cell Invasion Assay (Boyden chamber, calcein-AM); type: cell-based, human; conditions: MDA-MB-231, 5 μM
Protocol: Anti-Invasion Assays were performed to measure the anti-invasive properties of Compounds 1-21 using a 96 well basement membrane extract “BME” Cell Invasion Assay (Cultrex®, Trevogen, Catalog# 3455-096-K) with the highly metastatic breast cancer cell line MDA-MB-231. This assay employs a simplified Boyden Chamber design with a polyethylene terephthalate membrane (8 μm). Detection of cell invasion is quantified using calcein-AM. Cells internalize calcein-AM and intracellular esterases cleave the acetomethylester moiety to generate free calcein. Free calcein fluoresces brightly, and this fluorescence may be used to quantify the number of cells that have invaded across BME. (See Tamilarasan and Borghesani, referenced above)
About […] of basement membrane extract (BME, 1×) coat was added per well. After overnight incubation at 37° C. in a 5% CO2 incubator, 50,000/50 μL of MDA-MB-231 cells in serum free RPMI medium were added to the top chamber of each well, which contained the tested compound at a treatment concentration of 5 μM. About 150 μL of RPMI medium was added to the lower chamber, which contained 10% fetal bovine serum, penicillin/streptomycin, and fibronectin (1 μL/mL) and N-formyl-met-leu-phe (10 nM) as chemoattractants. Cells were allowed to migrate to the lower chamber at 37° C. in a CO2 incubator. After 24 h, the top and bottom chambers were aspirated and washed with a washing buffer solution. About 100 μL of cell dissociation solution/Calcein-AM solution was added to the bottom chamber and incubated for 1 hour at 37° C. in a CO2 incubator. The cells internalized calcein-AM, and the intracellular esterases cleaved the acetomethylester (AM) moiety to generate free calcein. Fluorescence of the samples was determined at 485 nm excitation; 520 nm emissions were measured using a plate reader (BioTek, VT). The numbers of cells that invaded through the BME coat were calculated using a standard curve.
Differences among the various treatment groups were determined by analysis of variance (ANOVA) followed by Dunnett's t-test. Differences were considered to be statistically significant at a value of <0.05, as compared to vehicle treated controls.

[5] = MCF7, 96 h, read-out: MCF7 IC50 μM
[6] = MDA-MB-231, 96 h, read-out: MDA-MB-231 IC50 μM

SMILES | activity relative to parent γ-tocotrienol (2) ([1]; +SA cells, versus Compound 2) | IC50 ([1]; Mus musculus, +SA cell, 96 h) | IC50 [2, 5] | IC50 ([2]; MCF7, read-out: IC50 values (range)) | potency relative to parent natural tocotrienol ([2]; MCF7, 4 and 10 versus Compound 1, 8 versus Compound 2) | IC50 [3, 6] | antiproliferative activity (in words) ([1]; +SA cells) | anti-invasive activity (in words) [4] | IC50 ([3]; MDA-MB-231, read-out: IC50 (range)) | antiproliferative activity (in words) ([3]; MDA-MB-231)
CC(C)=CCC/C(C)=C/CC/C(C)=C/CC[C@]1(C)CCc2cc(OC(=O)NS(=O)(=O)c3ccc(C)cc3)c(C)c(C)c2O1 [Compound 8, (R)-2,7,8-trimethyl-2-((3E,7E)-4,8,12-trimethyltrideca-3,7,11-trienyl)chroman-6-yl tosylcarbamate] | ~2 fold | 2 µM | 5.1 µM | 5 to 10 µM | ~3 fold | > 10 µM | – | – | – | –
CC(C)=CCC/C(C)=C/CC/C(C)=C/CC[C@]1(C)CCc2cc(OC(=O)NS(=O)(=O)c3ccc(C)cc3)cc(C)c2O1 [Compound 9, (R)-2,8-dimethyl-2-((3E,7E)-4,8,12-trimethyltrideca-3,7,11-trienyl)chroman-6-yl tosylcarbamate] | – | – | > 10 µM | – | – | 6.6 µM | activity better than that of its parent tocotrienol | more active than their natural tocotrienol parent compounds | 5 to 10 µM | improved activities
